Reference: ChEMBL document CHEMBL4007445, “Design, synthesis, and biological evaluation of imidazo[1,2-b]pyridazine derivatives as mTOR inhibitors” (Eur J Med Chem, 2017)

Columns and labels:
A549 [1] = assay: Growth inhibition of human A549 cells at 20 uM after 72 hrs by SRB assay relative to control; format: functional; conditions: A549, 72 h, read-out: GI
MCF7 [2] = assay: Growth inhibition of human MCF7 cells at 20 uM after 72 hrs by SRB assay relative to control; format: functional; conditions: MCF7, 72 h, read-out: GI
[3] = Growth inhibition of human U87 cells at 20 uM after 72 hrs by SRB assay relative to control; format: functional, U-87MG ATCC; conditions: U-87 MG, read-out: GI
A-375 [4] = assay: Growth inhibition of human A375 cells at 20 uM after 72 hrs by SRB assay relative to control; format: functional; conditions: A-375, 72 h, read-out: GI
HeLa = assay: Growth inhibition of human HeLa cells at 20 uM after 72 hrs by SRB assay relative to control; format: functional; conditions: read-out: GI
A549 [5] = assay: Antiproliferative activity against human A549 cells after 72 hrs by SRB assay; format: functional, cell-based; conditions: A549, 72 h
A-375 [6] = assay: Antiproliferative activity against human A375 cells after 72 hrs by SRB assay; format: functional, cell-based; conditions: A-375, 72 h
MCF7 [7] = assay: Antiproliferative activity against human MCF7 cells after 72 hrs by SRB assay; format: functional, cell-based; conditions: MCF7, 72 h
[8] = Antiproliferative activity against human U87 cells after 72 hrs by SRB assay; format: functional, cell-based, U-87MG ATCC; conditions: U-87 MG
NCI-H460 = assay: Antiproliferative activity against human NCI-H460 cells after 72 hrs by SRB assay; format: functional, cell-based; conditions: NCI-H460, 72 h
HEK293 = assay: Antiproliferative activity against HEK293 cells after 72 hrs by SRB assay; format: cell-based; conditions: Homo sapiens, HEK293, 72 h
[9] = Solubility of the compound; format: physicochemical

Structure (SMILES)	inhibition of growth at 20 µM (A549 [1]) [%]	inhibition of growth at 20 µM (MCF7 [2]) [%]	inhibition of growth at 20 µM [3] [%]	inhibition of growth at 20 µM (A-375 [4]) [%]	inhibition of growth at 20 µM (HeLa) [%]	IC50 (A549 [5]) [µM]	IC50 (A-375 [6]) [µM]	IC50 (MCF7 [7]) [µM]	IC50 [8] [µM]	IC50 (NCI-H460) [µM]	IC50 (HEK293) [µM]	solubility [9]
COc1ccc(-c2cc(N3CCOC[C@@H]3C)c3ncc(C4CCN(C(=O)c5cccnc5)CC4)n3n2)cc1CO	46.8	42.1	4.3	19.6	17.8							
Cc1cnc2c(N3CCOC[C@@H]3C)cc(-c3ccc(NC(=O)Nc4cccnc4)cc3)nn12						1.2	3.3	7.8	10.8	7.3	8.2	Insoluble
C[C@H]1COCCN1c1cc(-c2ccc(NC(=O)Nc3ccc(N4CCN(C)CC4)cc3)cc2)nn2ccnc12						1.5	2	3.5	2.6	2	8.4	
CN1CCN(c2ccc(NC(=O)Nc3ccc(-c4cc(N5CC6CCC(C5)O6)c5nccn5n4)cc3)cc2)CC1						3.1	1.8	2.9	4.3	2.9	12.1	
CCc1cnc2c(N3CCOC[C@@H]3C)cc(-c3ccc(NC(=O)Nc4ccncc4)cc3)nn12						5.9	4.1	4.7	5.1	2.8	7.5	Insoluble
O=C(Nc1ccncc1)Nc1ccc(-c2cc(N3CC4CCC(C3)O4)c3nccn3n2)cc1						2.3	10.9	6.3	11.7	2.2	3.4	
O=C(Nc1ccc(-c2cc(N3CCOCC3)c3nccn3n2)cc1)Nc1cccnc1						0.22	15.7	17.7	20	1	1.4	
O=C(Nc1ccc(-c2cc(N3CC4CCC(C3)O4)c3nccn3n2)cc1)Nc1cccnc1						1.1	4.7	37.9	5.8	0.65	9	
C[C@H]1COCCN1c1cc(-c2ccc3[nH]ccc3c2)nn2c(C3CCN(S(C)(=O)=O)CC3)cnc12	34	55.3	45.4	29.4	47.4							
C[C@H]1COCCN1c1cc(-c2ccc3[nH]ccc3c2)nn2c(C3CCN(C(=O)c4cccnc4)CC3)cnc12	57	75.6	58.3	96.7	34.2	11.6	4.1	9.9	10			
C[C@H]1COCCN1c1cc(-c2ccc3[nH]ccc3c2)nn2c(C3CCN(Cc4cccnc4)CC3)cnc12	84	96.5	84.4	96.7	73.6	7.7	3.4	6.3	7.9			
OCc1cccc(-c2cc(N3CCOCC3)c3ncc(C4CCN(Cc5cccnc5)CC4)n3n2)c1	30.2	46.2	7.8	12.5	19.4							
CN1CCN(c2ccc(NC(=O)Nc3ccc(-c4cc(N5CCOCC5)c5nccn5n4)cc3)cc2)CC1						3.3	1.6	4.3	4.9	3	7.8	
CCc1cnc2c(N3CCOCC3)cc(-c3ccc(NC(=O)Nc4cccnc4)cc3)nn12						1.9	> 40	> 40	> 40	> 40	> 40	Insoluble
C[C@H]1COCCN1c1cc(-c2cnc(N)nc2)nn2c(C3CCN(C(=O)c4cccnc4)CC3)cnc12	42.1	32	11.7	17.8	9.4							
C[C@H]1COCCN1c1cc(-c2cnc(N)nc2)nn2c(C3CCN(Cc4cccnc4)CC3)cnc12	44.8	34.2	10.8	14.7	30.5							
